The subject of test [1] is Fusarium graminearum. The test is classed as in vivo. Particulars: for % FHB Control* / FHB Area / FHB Area (% of Control) / Observed % FHB Efficacy: spring wheat; for % FHB Control*: Group A, GS 59, 100 gai/ha, relative to inoculated untreated check; for FHB Area / FHB Area (% of Control) / Observed % FHB Efficacy: Group B.
For test [2], the system named is Fusarium graminearum. Type of test: in vivo. The note with it: for DON Levels (% of Control) / DON Levels (ppm) / Observed % DON Efficacy: harvested spring wheat grain, Group B; for % DON Reduction: spring wheat, Group A, GS 59, 100 gai/ha, relative to inoculated untreated check.
A further test relates to Fusarium verticillioides. Particulars: for F. verticilliodes disease severity (in words): safeners alone at 100 gai/ha.

Like-named read-outs stand apart in the source and are kept apart here.

Method for Fusarium verticillioides: Corn seeds of the Garst hybrid 86C73-3000GT were planted and grown in the greenhouse at 22° C., 12 hours of light/12 hours of dark using an experiment based on a randomized complete block (RCB) design with ten replicates.
Safeners tested were: N-(2-methoxybenzoyl)-4-[(methylaminocarbonyl)amino]benzenesulfonamide, Cyprosulfamide, and Isoxadifen, alone and in combination with Prothioconazole fungicide, were applied at the beginning of tasselling stage (GS 51-55) at rates of 100 gai/ha. Prothioconazole was tested alone at rates of 50, 100, and 200 gai/ha. Prothioconazole was tested in combination with safeners at 100 gai/ha. An additional treatment of Prothioconazole at 50 gai/ha+Isoxadifen at 100 gai/ha was included. All treatments were applied a water volume of 220 L/ha using a track sprayer. The adjuvant X-77 was included in each treatment of maize at a rate of 0.125% v/v. Untreated non-innoculated and inoculated control treatments were included within the treatment list.
Maize was inoculated with Fusarium verticillioides at flowering/silking stage (GS 61-65) by spraying conidia of F. verticillioides on the emerged silk at 1.0×10^6 conidia/mL. Treated plants where then incubated in the dark at 22° C. for 3 days in the dark at 100% R.H., followed by 6 days at 65% R.H. at 12 hour light/dark intervals at 22° C.
Maize was harvested at maturity, the weight of corn seeds per ear was recorded. Fusarium disease severity per maize ear was determined by plating a ten seeds per ear on Fusarium selective agar media. Seeds were surface sterilized with 5% sodium hypochloride for 1 minute followed by washing with sterile water for 1 minute, prior to plating on selective media. After plating, seeds were incubated in the dark at 15° C. for 10 days.

With `O=C(O)C1=NOC(c2ccccc2)(c2ccccc2)C1` [Isoxadifen, 4,5-dihydro-5,5-diphenyl-3-isoxazolecarboxylic acid], the “% FHB Control*” value with Fusarium graminearum [1] worked out at 0%. Also, in the test on Fusarium graminearum [1] (GS 65/69, 100 gai/ha), the “FHB Area” value turned out to be 81.3%, the “FHB Area (% of Control)” value is recorded as 133.9% and the “Observed % FHB Efficacy” value stood at 0.0%. The “effectiveness of treatment for wheat (in words)” value in the test with Fusarium graminearum [1] (wheat) is given as “Particularly effective”. Further, in the test on Fusarium graminearum [2] (GS 65/69, 100 gai/ha), the “DON Levels (% of Control)” value amounted to 106.6%, the “DON Levels (ppm)” value is given as 29.098 ppm and the “Observed % DON Efficacy” value amounted to 0.0%. Further, the “% DON Reduction” value with Fusarium graminearum [2] came to 17%. Also, in the test on Fusarium verticillioides (maize), the “effectiveness of treatment for maize (in words)” value was “Particularly effective” and the “F. verticilliodes disease severity (in words)” value is listed as “greatly reduced”.

For Prothioconazole, in the test with Fusarium graminearum [1] (GS 65/69, 50 gai/ha), the “FHB Area” value was determined as 28.1%, the “FHB Area (% of Control)” value was 46.3% and the “Observed % FHB Efficacy” value is recorded as 53.7%. In addition, in the test on Fusarium graminearum [1] (GS 65/69, 100 gai/ha), the “FHB Area” value amounted to 57.5%, the “FHB Area (% of Control)” value was determined as 94.7% and the “Observed % FHB Efficacy” value came out at 5.3%. In the test on Fusarium graminearum [1] (GS 65/69, 200 gai/ha), the “FHB Area” value is 7.3%, the “FHB Area (% of Control)” value turned out to be 12.0% and the “Observed % FHB Efficacy” value amounted to 88.0%. Besides, in the test with Fusarium graminearum [2] (GS 65/69, 50 gai/ha), the “DON Levels (% of Control)” value amounted to 37.6%, the “DON Levels (ppm)” value came out at 10.274 ppm and the “Observed % DON Efficacy” value worked out at 62.4%. Besides, in the test with Fusarium graminearum [2] (GS 65/69, 100 gai/ha), the “DON Levels (% of Control)” value was determined as 38.3%, the “DON Levels (ppm)” value came out at 10.456 ppm and the “Observed % DON Efficacy” value is 61.7%. Further, in the test on Fusarium graminearum [2] (GS 65/69, 200 gai/ha), the “DON Levels (% of Control)” value is recorded as 15.8%, the “DON Levels (ppm)” value was determined as 4.322 ppm and the “Observed % DON Efficacy” value was 84.2%. Moreover, in the test on Fusarium verticillioides (treated versus untreated control maize plants), the “Fusarium verticilliodes disease severity per maize ear (in words)” value is on record as “reduced disease severity”.

On to `CON(C(=O)c1cn(C)nc1C(F)F)C(C)Cc1c(Cl)cc(Cl)cc1Cl` (centres unmarked) [3-difluoromethyl-1-methyl-1H-pyrazole-4-carboxylic acid methoxy-[1-methyl-2-(2,4,6-trichlorophenyl)-ethyl]-amide], for which, in the test with Fusarium graminearum [1] (GS 65/69, 50 gai/ha), the “FHB Area” value turned out to be 8.3%, the “FHB Area (% of Control)” value came to 13.7% and the “Observed % FHB Efficacy” value turned out to be 86.3%. In addition, in the test on Fusarium graminearum [1] (GS 65/69, 100 gai/ha), the “FHB Area” value is reported as 7.5%, the “FHB Area (% of Control)” value was 12.4% and the “Observed % FHB Efficacy” value was 87.6%. In the test on Fusarium graminearum [1] (GS 65/69, 200 gai/ha), the “FHB Area” value is listed as 7%, the “FHB Area (% of Control)” value was found to be 11.5% and the “Observed % FHB Efficacy” value is on record as 88.5%. Besides, in the test on Fusarium graminearum [2] (GS 65/69, 50 gai/ha), the “DON Levels (% of Control)” value stood at 25.9%, the “DON Levels (ppm)” value is on record as 7.084 ppm and the “Observed % DON Efficacy” value worked out at 74.1%. For the same compound, in the test on Fusarium graminearum [2] (GS 65/69, 100 gai/ha), the “DON Levels (% of Control)” value was 16.1%, the “DON Levels (ppm)” value amounted to 4.388 ppm and the “Observed % DON Efficacy” value is listed as 83.9%. For the same compound, in the test with Fusarium graminearum [2] (GS 65/69, 200 gai/ha), the “DON Levels (% of Control)” value was 11.7%, the “DON Levels (ppm)” value was 3.187 ppm and the “Observed % DON Efficacy” value turned out to be 88.3%.

Consider `CNC(=O)Nc1ccc(S(=O)(=O)NC(=O)c2ccccc2OC)cc1`, for which the “% FHB Control*” value with Fusarium graminearum [1] came to 7%. In the test on Fusarium graminearum [2], the “% DON Reduction” value came to 0%. Further, the “F. verticilliodes disease severity (in words)” value with Fusarium verticillioides (maize) is reported as “greatly reduced”.

As for `CCCCCC(C)OC(=O)COc1ccc(Cl)c2cccnc12` (centres unmarked) [Cloqunitocet, 1-methylhexyl[(5-chloro-8-quinolinyl)oxy]acetate], the “% FHB Control*” value in the test on Fusarium graminearum [1] came out at 1%. Moreover, the “% DON Reduction” value with Fusarium graminearum [2] was found to be 9%.

The values above are taken from patent publication US20130237415A1 (priority 2010, published 2013).
